From patent publication US10493061B2, “Compositions and methods comprising 2-(acylamino)imidazoles” (priority 2014, dated 2019) come the findings set out here.

For data set [1], the system named is untransformed MCF-10A cells. As to the kind of experiment: Clonogenic cell survival assay. The note with it: 24 hours ZNA, then three weeks of growth, crystal violet.
Protocol: Clonogenic cell survival assays were conducted as described in Franken NAP, Rodermond H M, Stap J, Haveman J, van Bree C.
Further experiments were also conducted to assess the effects of short-term ZNA treatment on long-term cell survival and proliferation. Cells were treated for 24 hours with ZNA then cultured in the absence of the small molecule; following three weeks of growth, colonies were stained with crystal violet and quantified (FIG. 1D).
The test system of data set [2] is transplanted PyMT mammary tumors. Briefly: Mouse mammary tumor model (transplanted PyMT tumors), Kaplan-Meier survival. Format: in vivo. The method, then:
In vivo ZNA studies: Mouse studies were conducted with the approval of an institutional animal care and use committee. FVB/NJ mice were obtained from The Jackson Laboratory (Bar Harbor, Me., USA). In preparation for the in vivo study, EF1α-PyMT mouse mammary tumors were generated in donor mice and the tumors resected and prepared as single cells as described previously by Smith et al. (6). These cells were suspended in Matrigel (BD Biosciences) and injected (50,000 cells per 10 μL injection) into the uncleared mammary fat pad of 3-week old female recipient FVB/NJ mice. Twenty-one days following the transplant, the mice were randomized, and drug treatment was initiated; the mice were treated once a day for 21 days, and a tumor diameter ≥2 cm was established as an endpoint. ZNA (100 mg/kg) or the matched vehicle control was administered to each mouse via a 200-μL intraperitoneal injection of ZNA diluted into DMSO, then diluted into phosphate buffered saline to a final DMSO concentration of 5%. ZnSO4 was administered continuously for the 21-day treatment period to the appropriate groups via drinking water (25 mM ZnSO4.7H2O).
Statistics: The student's t-test (unpaired) was used to assess statistical significance and a p≤0.05 was considered statistically significant. Statistical significance between Kaplan-Meier survival curves was measured by the Mantel-Cox test using Prism 6.0 (GraphPad Software). The following P-values were used to annotate statistical significance: p≤0.05=*; p≤0.01=**; p≤0.001=***.
Next, the efficacy of the compound was tested in an in vivo tumor model. […] Mice were treated once a day for 21 days, and four treatment conditions were assessed: ZNA (100 mg/kg administered via intraperitoneal), ZnSO4 (25 mM administered continuously for the duration of treatment via drinking water), a combination of ZNA and ZnSO4, and a control group (PBS administered via intraperitoneal injection); a tumor diameter greater than 2 cm was established as an endpoint.

Data set [3] has as its system MCF-10A normal mammary epithelial cell line. Briefly: Cell death by propidium iodide staining and flow cytometry. It counts as cell-based, human. The method, then:
Measurement of cell death by propidium iodide staining: Cells were cultured to 80% confluence in 6-well plates and the growth media was then replaced with low serum (2% FBS) drug-containing media. Each condition was assessed in triplicate. Following the completion of treatment, the media and floating cells were collected and combined with the trypsinized adherent cells. The cells were washed with 2% FBS/HBSS, and resuspended in a propidium iodide solution (Cell Signaling) for analysis by flow cytometry. The percentage of propidium iodide positive cells for each treatment condition were averaged and normalized to the vehicle-treated control. The normalized data were plotted as the average±standard error of three replicates.
In order to validate the transition metal screen with a second cell viability assay, propidium iodide uptake was measured in four cell lines by flow cytometry following a 24-hour treatment with either 30 μM ZNA alone or in combination with 30 µM CuSO4 or 30 μM ZnSO4 (FIG. 2B).
Since autophagy can stimulate both pro-death and pro-survival pathways, experiments were next conducted to assess how autophagic inhibitors impacted ZNA's cell death profile. […] As such, cells were treated with ZNA in combination with chloroquine, an inhibitor of autophagosome function, and cell death was assessed by propidium iodide stain following 72 hours of treatment. […]
A general note: A flow cytometer gives signals particle by particle.

For data set [4], the system named is metal trafficking genes in MCF-7, T47D, MDA-MB-231 and MCF-10A cells. Briefly: Real-time PCR of metal trafficking genes. It counts as cell-based, human. As to conditions: 30 μM ZNA, 3 or 24 hours, four cell lines. The method, then:
Real-Time PCR (RT-PCR): For experiments designed to measure gene expression, real-time PCR (RT-PCR) was conducted using a LightCycler 480 (Roche, Basel, Switzerland) and KAPA SYBR FAST qPCR Master Mix (Kapa Biosystems, Boston, Mass., USA). […] Genomic DNA was removed with a DNase digest and 1 μg of RNA was used to synthesize cDNA using a Superscript III Reverse Transcriptase kit from Invitrogen per the manufacturer's protocol; after an RNase H digestion, RT-PCR was performed in a 5 μL reaction using KAPA SYBR FAST qPCR Master Mix (Kapa Biosystems, Boston, Mass., USA). The following primer sets were used: MT1F 5′-[…] -3′ (SEQ ID NO:1) and 5′-[…] -3′ (SEQ ID NO:2); MT1X 5′-[…] -3′ (SEQ ID NO:3) and 5′-[…] -3′ (SEQ ID NO:4); MT2A 5′-[…] -3′ (SEQ ID NO:5) and 5′-[…] -3′ (SEQ ID NO:6); SLC30A2 5′-[…] -3′ (SEQ ID NO:7) and 5′-[…] -3′ (SEQ ID NO:8); SLC30A1 5′-[…] -3′ (SEQ ID NO:9) and 5′-[…] -3′ (SEQ ID NO:10). Data were normalized to an internal reference gene (GAPDH 5′-[…] -3′ (SEQ ID NO:11) and 5′-[…] -3′ (SEQ ID NO:12)) and relative gene expression was assessed using the comparative CT method set forth in Schmittgen T D, Livak K J. Analyzing real-time PCR data by the comparative CT method. Nat Protocols 2008; 3(6):1101-08. For tissue derived from mouse in vivo experiments, fresh tissue was homogenized using a TissueLyser II for 3 minutes at 30 Hz before isolating RNA. […]

Data set [5] in a line: Zn^2+ binding, (ZNA)2Zn dimer formation (MeOH precipitation, X-ray, NMR). An excerpt: The structure of the solid product was confirmed by X-ray crystallography (FIG. 14B). […] HCl in D2O protonates the ligand off the metal center, as evidenced by the disappearance of the diastereotopic benzyllic AB quartet in the dimer and its appearance as a singlet in the monomer. […] Of the analogues evaluated, those with more electron-donating groups at C5 or on the N^2-carbonyl seem to improve activity.

SMILES strings stand for the structures. Entries after “also recorded” stand apart in the source; their conditions may differ.

Take `COc1ccc(-c2c(Cc3ccccc3)[nH]/c(=N\C(=O)c3ccccc3F)n2C)cc1` [ZNA, (E)-N-(4-benzyl-5-(4-methoxyphenyl)-1-methyl-1H-imidazol-2(3H)-ylidene)-2-fluorobenzamide]: the “long-term proliferative potential (colonies)” value in data set [1] was “greatly attenuated”. The survival result is “statistically significant survival advantage” in data set [2] (ZNA 100 mg/kg ip once a day for 21 days, vs control-treated group) and “statistically significant survival advantage” in data set [2] (ZNA 100 mg/kg ip once a day with 25 mM ZnSO4 in drinking water, 21 days, vs ZnSO4-only group). Further, the “general toxicity, adverse reactions, body weight” value in data set [2] (mice, ZNA 100 mg/kg alone or with ZnSO4) is “no general toxicity, adverse reactions, or decreases in body weight were observed; also recorded: without detrimental effects on mouse weight and health”. In addition, the “cell death (propidium iodide uptake)” value in data set [3] (30 μM ZNA with 30 μM ZnSO4, 24 hours) is given as “unaffected”. Further, the “ZNA-induced cell death (propidium iodide)” value in data set [3] (ZNA with chloroquine, 72 hours) is given as “did not significantly affect cell death”. The “transcription of metal trafficking genes” value in data set [4] is recorded as “stimulated transcriptional increases”. The “Zn^2+ binding” value in data set [5] is listed as “binds Zn^2+ in a pH dependent fashion”.
